This passage reports IC50 results from patent US20170291890A1 (Epizyme, Inc., priority 2014, published 2017).

pIC50: −log10 of the molar value.

In this test the target is T1, KDM4A (Homo sapiens, UniProt O75164).
T1 construct: N-terminal His-tagged KDM4A^1-350 was purchased from BPS Biosciences; His (N); purchased BPS Biosciences
T1 sequence (O75164 1-350): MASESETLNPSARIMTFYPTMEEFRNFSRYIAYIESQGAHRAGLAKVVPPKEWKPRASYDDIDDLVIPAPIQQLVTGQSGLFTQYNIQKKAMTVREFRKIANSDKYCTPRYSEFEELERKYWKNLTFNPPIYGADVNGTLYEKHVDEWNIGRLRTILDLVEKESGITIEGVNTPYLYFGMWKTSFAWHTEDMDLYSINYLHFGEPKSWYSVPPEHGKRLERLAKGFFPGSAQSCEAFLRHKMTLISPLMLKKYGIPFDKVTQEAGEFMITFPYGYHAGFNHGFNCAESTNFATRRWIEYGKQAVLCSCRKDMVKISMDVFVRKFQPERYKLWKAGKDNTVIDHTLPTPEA
Briefly: KDM4A Assay (SAMDI mass spectrometry demethylase assay). The settings on record: N-terminal His-tagged KDM4A 1-350; class symbols; read-out: 4A IC50. Type of test: biochemical. The method, then: N-terminal His-tagged KDM4A^1-350 was purchased from BPS Biosciences. Peptides were synthesized by BioPeptide and all other reagents were purchased from Sigma-Aldrich at the highest level of purity possible. Assays were performed in a 50 μL volume in 384-well V-bottom polypropylene microplates (Greiner) at 25° C. Optimized 1× assay buffer was 50 mM HEPES (pH=8.0), 100 μM sodium ascorbate, 20 mM NaCl, 10 μM ammonium iron sulfate, 1 mM tris(2-carboxyethyl)phosphine (TCEP), 0.002% Tween-20, and 0.005% BSG. For compound screening, 35 μL of KDM4A^1-350 (final concentration, f.c.=5 nM) was added using a Multidrop Combi and preincubated with 1 μL of test compound (f.c.=10 μM) for 30 minutes and subsequently 15 μL of peptide with the following sequence NH2-ARTKQTAR(Kme2)STGGKAPRKQLA(K-Ahx-Biotin)-amide (f.c.=600 nM) and 2-oxoglutarate (f.c.=5 μM) was added by Multidrop Combi to begin the reaction. Reactions proceeded for 120 minutes and were stopped by the addition of 5 μL of formic acid (f.c.=0.5%) using a Multidrop Combi and then analyzed by SAMDI Tech Inc.
SAMDI Tech analyzed all reactions using self-assembled monoloayer desorption/ionization technology as previously described (Gerard-Levin Z A, Scholle M D, Eisenberg A H, et al.: High-throughput screening of small molecule libraries using SAMDI mass spectrometry. ACS Comb Sci 2011; 13:347-350). Briefly, a 2 μL sample of the stopped demethylase reactions were transferred to a SAMDI array coated with 384 biotin-neutravidin spots using a 384-channel pipet station. The SAMDI arrays were incubated for 1 h in a humidified chamber, followed by washing of the surface with deionized ultra-filtered water (DIUF) and drying under nitrogen. A matrix of 30 mg/ml 2′,4′,6′-Trihydroxyacetophenone monohydrate (THAP) in acetone was applied using a TPP Mosquito 1.2 μL tip by dispensing 50 nL on each of the 384 spots on the array. SAMDI-MS was run using acquisition method ReflectorPositiveUTX. The % conversion of substrate to product was calculated using the AUC of the substrate and product peptide peaks.
An IC50 value was determined by contacting various concentrations of a test compound with one of the KDM4A, KDM4C or KDMSC enzyme constructs and plotting a dose-response curve which associates the amount of inhibition of the enzyme relative to the concentration of the test compound. From the curve, the IC50 value (which represents the concentration of the test compound necessary to inhibit maximal enzymatic activity by 50%) was determined. Additionally, the slope of the linear range of the plotted curve, which indicates the speed with which the curve rises between the minimum and maximum, was calculated.

Consider `O=C(O)c1ccncc1Nc1cc(-c2ccccc2)nn1[C@H]1CC[C@@H](O)CC1` [Compound 40, 3-((1-((cis)-4-Hydroxycyclohexyl)-3-phenyl-1H-pyrazol-5-yl)amino)isonicotinic acid], for which the negative logarithm of the IC50 (pIC50) is 5.00 to 6.00.

With `O=C(O)c1ccncc1Nc1cn(-c2ccccc2)nc1-c1ccccc1` [Compound 41, 3-((1,3-Diphenyl-1H-pyrazol-4-yl)amino)isonicotinic acid], the negative logarithm of the IC50 (pIC50) was 6.00 to 7.00.

For the compound `O=C(O)c1ccncc1Nc1nn(-c2ccccc2)cc1-c1ccccc1` [Compound 42, 3-((1,4-diphenyl-1H-pyrazol-3-yl)amino)isonicotinic acid], the pIC50 was 6.00 to 7.00.

Turning to `O=C(O)c1ccncc1Nc1c(-c2ccccc2)cnn1-c1ccccc1` [Compound 43, 3-((1,4-Diphenyl-1H-pyrazol-5-yl)amino)isonicotinic acid], the pIC50 is 4.00 to 5.00.

Take `O=C(O)c1ccncc1Nc1nn(CCN2CCC(F)(F)CC2)cc1-c1ccc(F)cc1` [Compound 45, 3-((1-(2-(4,4-difluoropiperidin-1-yl)ethyl)-4-(4-fluorophenyl)-1H-pyrazol-3-yl)amino)isonicotinic acid]: the pIC50 is 6.00 to 7.00.

With `O=C(O)c1ccncc1Nc1c(-c2ccc(F)cc2)cnn1CCN1CCC(F)(F)CC1` [Compound 46, 3-((1-(2-(4,4-difluoropiperidin-1-yl)ethyl)-4-(4-fluorophenyl)-1H-pyrazol-5-yl)amino) isonicotinic acid], the pIC50 was 5.00 to 6.00.

Take `CN(C)CCCn1cc(-c2ccccc2)c(Nc2cnccc2C(=O)O)n1` [Compound 51, 3-((1-(3-(dimethylamino)propyl)-4-phenyl-1H-pyrazol-3-yl)amino) isonicotinic acid]: the negative-log IC50 (pIC50) is 7.00 to 9.00.

With `CN(C)CCCn1ncc(-c2ccccc2)c1Nc1cnccc1C(=O)O` [Compound 52, 3-((1-(3-(dimethylamino)propyl)-4-phenyl-1H-pyrazol-5-yl)amino) isonicotinic acid], the pIC50 was 5.00 to 6.00.

Turning to `Cc1c(-c2ccccc2)nn(C)c1Nc1cnccc1C(=O)O` [Compound 53, 3-((1,4-dimethyl-3-phenyl-1H-pyrazol-5-yl)amino)isonicotinic acid], the negative logarithm of the IC50 (pIC50) is 6.00 to 7.00.

For the compound `Cc1n[nH]c(-c2ccccc2)c1Nc1cnccc1C(=O)O` [Compound 55, 3-((5-methyl-3-phenyl-1H-pyrazol-4-yl)amino)isonicotinic acid], the pIC50 was 5.00 to 6.00.

Take `O=C(O)c1ccncc1Nc1cc(-c2ccccc2)nn1-c1ccncc1` [Compound 56, 3-((3-phenyl-1-(pyridin-4-yl)-1H-pyrazol-5-yl)amino) isonicotinic acid]: the pIC50 is 6.00 to 7.00.

For `O=C(O)c1ccncc1Nc1nn(CCN2CCC(F)(F)CC2)cc1C1CCCCC1` [Compound 57, 3-((4-cyclohexyl-1-(2-(4,4-difluoropiperidin-1-yl)ethyl)-1H-pyrazol-3-yl)amino)isonicotinic acid], the pIC50 is 6.00 to 7.00.

On to `CNC(=O)c1ccc(-n2ncc(Nc3cnccc3C(=O)O)c2C)cc1` [Compound 58, 3-((5-methyl-1-(4-(methylcarbamoyl)phenyl)-1H-pyrazol-4-yl)amino) isonicotinic acid], for which the pIC50 is 7.00 to 9.00.

Turning to `CNC(=O)c1cccc(-n2ncc(Nc3cnccc3C(=O)O)c2C)c1` [Compound 59, 3-((5-methyl-1-(3-(methylcarbamoyl)phenyl)-1H-pyrazol-4-yl)amino) isonicotinic acid], the pIC50 is 7.00 to 9.00.

In the case of `Cc1cc(Nc2cnccc2C(=O)O)nn1-c1ccccc1` [Compound 60, 3-((5-methyl-1-phenyl-1H-pyrazol-3-yl)amino)isonicotinic acid], the negative-log IC50 (pIC50) is 6.00 to 7.00.

Regarding `Cc1cc(Nc2cnccc2C(=O)O)n(-c2ccccc2)n1` [Compound 61, 3-((3-methyl-1-phenyl-1H-pyrazol-5-yl)amino) isonicotinic acid], the pIC50 was 6.00 to 7.00.

`Cc1cn(-c2ccccc2)nc1Nc1cnccc1C(=O)O` [Compound 62, 3-((4-methyl-1-phenyl-1H-pyrazol-3-yl)amino) isonicotinic acid]: the negative logarithm of the IC50 (pIC50) is 7.00 to 9.00.

On to `COc1ccccc1-n1cc(C)c(Nc2cnccc2C(=O)O)n1` [Compound 63, 3-((1-(2-methoxyphenyl)-4-methyl-1H-pyrazol-3-yl)amino) isonicotinic acid], for which the pIC50 was 6.00 to 7.00.

For the compound `CN(C)CCn1cc(-c2ccccc2)c(Nc2cnccc2C(=O)O)n1` [Compound 64, 3-((1-(2-(dimethylamino)ethyl)-4-phenyl-1H-pyrazol-3-yl)amino)isonicotinic acid], the pIC50 is 7.00 to 9.00.

As to `CN(C)CCn1ncc(-c2ccccc2)c1Nc1cnccc1C(=O)O` [Compound 65, 3-((1-(2-(dimethylamino)ethyl)-4-phenyl-1H-pyrazol-5-yl)amino)isonicotinic acid], the pIC50 is 5.00 to 6.00.

For the compound `Cc1c(-c2ccccc2)nn(CCN2CCC(F)(F)CC2)c1Nc1cnccc1C(=O)O` [Compound 66, 3-((1-(2-(4,4-difluoropiperidin-1-yl)ethyl)-4-methyl-3-phenyl-1H-pyrazol-5-yl)amino)isonicotinic acid], the pIC50 is 4.00 to 5.00.

As for `Cc1c(Nc2cnccc2C(=O)O)nn(CCN2CCC(F)(F)CC2)c1-c1ccccc1` [Compound 67, 3-((1-(2-(4,4-difluoropiperidin-1-yl)ethyl)-4-methyl-5-phenyl-1H-pyrazol-3-yl)amino)isonicotinic acid], the pIC50 was 7.00 to 9.00.

As for `Cc1c(Nc2cnccc2C(=O)O)cnn1C1CCNCC1` [Compound 68, 3-((5-methyl-1-(piperidin-4-yl)-1H-pyrazol-4-yl)amino)isonicotinic acid], the pIC50 was 6.00 to 7.00.

`Cc1nn(C2CCNCC2)cc1Nc1cnccc1C(=O)O` [Compound 69, 3-((3-methyl-1-(piperidin-4-yl)-1H-pyrazol-4-yl)amino) isonicotinic acid]: the pIC50 is 6.00 to 7.00.

In the case of `Cc1nn(-c2ccccc2C#N)cc1Nc1cnccc1C(=O)O` [Compound 70, 3-((1-(2-cyanophenyl)-3-methyl-1H-pyrazol-4-yl)amino) isonicotinic acid], the pIC50 was 6.00 to 7.00.

Consider `Cc1cn(-c2ccccc2C#N)nc1Nc1cnccc1C(=O)O` [Compound 71, 3-((1-(2-cyanophenyl)-4-methyl-1H-pyrazol-3-yl)amino) isonicotinic acid], for which the negative logarithm of the IC50 (pIC50) is 6.00 to 7.00.

In the case of `O=C(O)c1ccncc1Nc1nn(C2CCOCC2)cc1-c1ccccc1` [Compound 72, 3-((4-phenyl-1-(tetrahydro-2H-pyran-4-yl)-1H-pyrazol-3-yl)amino)isonicotinic acid], the pIC50 is 5.00 to 6.00.

`O=C(O)c1ccncc1Nc1nn(CCC(F)(F)F)cc1-c1ccccc1` [Compound 73, 3-((4-phenyl-1-(3,3,3-trifluoropropyl)-1H-pyrazol-3-yl)amino) isonicotinic acid]: the pIC50 was 6.00 to 7.00.

For the compound `O=C(O)c1ccncc1Nc1nn(CCC(F)(F)F)cc1-c1ccncc1` [Compound 74, 3-((4-(pyridin-4-yl)-1-(3,3,3-trifluoropropyl)-1H-pyrazol-3-yl)amino)isonicotinic acid], the pIC50 was 6.00 to 7.00.

On to `COc1ccc(-n2nc(C)c(Nc3cnccc3C(=O)O)c2C)cc1` [Compound 75, 3-((1-(4-methoxyphenyl)-3,5-dimethyl-1H-pyrazol-4-yl)amino)isonicotinic acid], for which the pIC50 was 6.00 to 7.00.

Consider `Cc1nn(-c2ccc(O)cc2)c(C)c1Nc1cnccc1C(=O)O` [Compound 76, 3-((1-(4-hydroxyphenyl)-3,5-dimethyl-1H-pyrazol-4-yl)amino)isonicotinic acid], for which the pIC50 is 6.00 to 7.00.

Turning to `Cc1nn(-c2ccccc2)c(C)c1Nc1cnccc1C(=O)O` [Compound 77, 3-((3,5-dimethyl-1-phenyl-1H-pyrazol-4-yl)amino)isonicotinic acid], the pIC50 is 7.00 to 9.00.

A word on the pIC50: it is the IC50 on a negative log10 scale, so that one unit is a factor of ten.
